From EP0485890A2, “Use of 2,3-disubstituate 1-azolyl-propane for inhibiting the pathogenic growth phase of dimorph yeast cell” (HOECHST AKTIENGESELLSCHAFT, priority 1990, dated 1992)
Values after ≈ are worked out from the molar mass of the structure shown.

Key:
[1] = tested on: Candida albicans; assay: Minimal inhibitory concentration (MHK) in vitro; assay type: cell-based; settings: read-out: MHK von Candida albicans
From the text: Außerdem wird deutlich, daß zur Erreichung einer ausgeprägten Hemmwirkung der Phospholipase-Aktivität Dosen ausreichen, die deutlich unterhalb derjenigen liegen, die zur Hemmung des Pilzwachstums in vitro nötig sind und welche bisher für eine reine antimykotische Therapie als unbedingt erforderlich erachtet wurden (sihe MHK-Werte von Candida albicans einiger ausgewählter Derivate).

[2] = tested on: Lysophospholipase (Phospholipase B); assay: In vitro enzyme test: inhibition of released exoenzymes (phospholipase) of Candida albicans blastoconidia on egg-yolk agar; assay type: cell-based; settings: Candida albicans Stamm 200/175
From the text: Als Beispiel für die Hemmung der pathogenen Phase dimorpher Hefezellen werden Ergebnisse eines in-vitro-Enzymtests angeführt, in welchen die prozentuale Hemmung freigesetzter Exoenzyme, insbesondere freigesetzter Lysophospholipase (Phospholipase B), als Maß für die Wirksamkeit bestimmt wird.
Zur Feststellung der Enzymhemmung wurde eine Suspension von Candida albicans Blastokonidien (Stamm 200/175), wobei die Keimdichte photometrisch auf eine Extinktion von 0,5 (500 nm) eingestellt war, mit Präparatelösung bzw. zur Kontrolle mit Lösungsmittellösung vermischt und zwar • a) 100 ul Präparatelösung (Suspension) • + 900 µl Keimsuspension • b) 100 µl Lösungsmittel • + 900 µl Keimsuspension • Jeweils 5 µl der 30 min bei 21 ° C inkubierten Blastokonidiensuspension wurden auf eine Agarplatte (Sabourand Agar mit Zusatz von 8 % Eigelb, 1 M NaCI, 5 mM CaC12) aufgetropft. • Die so beimpfte Platte wurde 3 Tage bei 37 ° C bebrütet.
Die Auswertung erfolgte derart, daß • 1. der Durchmesser (mm) der Candida albicans-Kolonie (behandelt und unbehandelt) sowie • 2. der Gesamtdurchmesser von Kolonie und Trübungshof, welcher durch Exoenzyme verursacht wurde (behandelt und unbehandelt) bestimmt wurde.
Aus der Bestimmung des Quotienten von Präparate- und Kontrollgruppe ergab sich ein Wert, der als Maß für die Enzymaktivität anzusehen war.

Structure (SMILES) | MIC [1] | % Hemmung der Phospholipase ([2]; Konzentration 10 µg/ml) | % Hemmung der Phospholipase ([2]; Konzentration 50 µg/ml) | also measured
CCN(CC(Cn1ccnc1)OCC=C(C)CCC=C(C)C)c1ccc(Cl)cc1 (stereo not drawn) [1.1] | > 125 µg/mL | 100% |  | % Hemmung der Phospholipase ([2]; Konzentration 1 µg/ml): 15%; % Hemmung der Phospholipase ([2]; Konzentration 5 µg/ml): 60%
CCN(CC(Cn1ccnc1)OCc1ccc(Cl)cc1)c1ccc(Cl)cc1 (stereo not drawn) [1.2] |  |  | 90% | 
CC(C)N(CC(Cn1ccnc1)OCc1ccc(Cl)cc1)c1ccc(Cl)c(Cl)c1 (stereo not drawn) [1.3] | 125 µg/mL (≈ 276 µM) | 25% | 100% | 
Clc1ccc(COC(CN2CCN(c3ccc(Cl)cc3)CC2)Cn2ccnc2)cc1 (stereo not drawn) [1.4] |  |  | 100% | 
OC(CN(Cc1ccc(Cl)cc1)c1ccc(Cl)cc1)Cn1ccnc1 (stereo not drawn) [1.5] |  |  | 100% | 
COC(CN(Cc1ccc(Cl)cc1)c1ccc(Cl)cc1)Cn1ccnc1 (stereo not drawn) [1.6] |  |  | 100% | 
OC(CN(Cc1ccc(Cl)cc1)Cc1ccc(Cl)cc1)Cn1ccnc1 (stereo not drawn) [1.8] |  |  | 100% | 
Clc1ccc(OCC(Cn2ccnc2)N2CCN(c3ccccc3)CC2)cc1 (stereo not drawn) [1.9] |  |  | 100% | 
Clc1ccc(SC(COc2ccc(Cl)cc2Cl)Cn2ccnc2)cc1 (stereo not drawn) [1.10] |  |  | 50% | 
Clc1ccc(N2CCN(C(COc3ccc(Cl)cc3Cl)Cn3ccnc3)CC2)cc1 (stereo not drawn) [1.11] |  |  | 100% | 
CN(CC(Cn1ccnc1)OCc1ccc(Cl)cc1Cl)c1ccc(Cl)cc1 (stereo not drawn) [1.12] |  |  | 100% | 
Clc1ccc(COC(CNc2ccc(Cl)cc2)Cn2ccnc2)cc1 (stereo not drawn) [1.13] |  |  | 26% | % Hemmung der Phospholipase ([2]; Konzentration 100 µg/ml): 33%
CCN(CC(Cn1ccnc1)OCc1ccc(Cl)cc1)c1ccc(Cl)c(Cl)c1 (stereo not drawn) [1.14] |  |  | 30% | % Hemmung der Phospholipase ([2]; Konzentration 100 µg/ml): 100%
CCN(CC(Cn1ccnc1)Sc1ccc(Cl)cc1)c1ccc(Cl)c(Cl)c1 (stereo not drawn) [1.15] | 125 µg/mL (≈ 284 µM) |  | 100% | 
CCN(CC(Cn1ccnc1)OCc1ccc(Cl)cc1Cl)c1ccc(Cl)c(Cl)c1 (stereo not drawn) [1.16] | 125 µg/mL (≈ 264 µM) |  | 100% | 
CCN(CC(Cn1ccnc1)OCc1ccc(Cl)cc1)c1cccc(C(F)(F)F)c1 (stereo not drawn) [1.17] |  |  | 12% | % Hemmung der Phospholipase ([2]; Konzentration 100 µg/ml): 38%
CCN(CC(Cn1ccnc1)OCc1ccc(Cl)cc1)c1ccc(Cl)cc1Cl (stereo not drawn) [1.18] |  |  | 60% | 
CCN(CC(Cn1ccnc1)SCc1ccc(Cl)cc1)c1cccc(C(F)(F)F)c1 (stereo not drawn) [1.19] | 125 µg/mL (≈ 275 µM) |  | 71,4% | 
Clc1ccc(N2CCN(C(COCc3ccc(Cl)cc3Cl)Cn3ccnc3)CC2)cc1 (stereo not drawn) [1.20] |  |  | 100% | 

Structure (SMILES) | MIC [1] | % Hemmung der Phospholipase ([2]; Konzentration 10 µg/ml) | % Hemmung der Phospholipase ([2]; Konzentration 50 µg/ml) | also measured
CCN(CC(Cn1ccnc1)OCc1cccc(Cl)c1)c1ccc(Cl)cc1 (stereo not drawn) [1.21] | 125 µg/mL (≈ 309 µM) | 12,7% | 50% | 
CCN(CC(Cn1ccnc1)OCc1ccc(Cl)cc1Cl)c1ccc(Cl)cc1 (stereo not drawn) [1.22] | 125 µg/mL (≈ 285 µM) | 23,1% | 100% | 
CC(=NOCC(Cn1ccnc1)OCc1ccc(Cl)cc1Cl)c1ccc(Cl)cc1 (stereo not drawn) [1.23] |  | 35,7% | 100% | 
CC(=NOCC(Cn1ccnc1)OCc1ccc(Cl)cc1)c1ccc(Cl)cc1 (stereo not drawn) [1.24] |  | 24,3% | 50% | 
CCN(CC(Cn1ccnc1)OCc1ccc(Cl)cc1)c1cccc(Cl)c1 (stereo not drawn) [1.25] |  | 27,3% | 60% | 
CC(=NOCC(Cn1ccnc1)Sc1ccc(Cl)cc1)c1ccc(Cl)cc1 (stereo not drawn) [1.26] |  | 50% | 90% | 
CCN(CC(Cn1ccnc1)OCc1ccc(Cl)cc1Cl)c1cccc(Cl)c1 (stereo not drawn) [1.28] | 125 µg/mL (≈ 285 µM) |  | 61,5% | % Hemmung der Phospholipase ([2]; Konzentration 100 µg/ml): 100%
CC(=NOCC(Cn1ccnc1)OCc1ccc(Cl)cc1)c1ccc(Cl)cc1Cl (stereo not drawn) [1.29] |  | 20,6% | 100% | 
Clc1ccc(CN2CCN(C(COc3ccc(Cl)cc3Cl)Cn3ccnc3)CC2)cc1 (stereo not drawn) [1.30] |  |  | 100% | 
Clc1ccc(OCC(Cn2ccnc2)N2CCN(Cc3ccc(Cl)cc3Cl)CC2)cc1 (stereo not drawn) [1.31] |  |  | 38,6% | % Hemmung der Phospholipase ([2]; Konzentration 100 µg/ml): 90%
CC(=NOCC(Cn1ccnc1)OCc1ccc(Cl)cc1Cl)c1ccc(Cl)cc1Cl (stereo not drawn) [1.32] | 125 µg/mL (≈ 257 µM) | 18,2% | 100% | 
CCCCN(CC(Cn1ccnc1)OCc1ccc(Cl)cc1)c1ccc(Cl)cc1 (stereo not drawn) [1.33] | 125 µg/mL (≈ 289 µM) | 24% | 80% | 
C=CCN(CC(Cn1ccnc1)OCc1ccc(Cl)cc1)c1ccc(Cl)cc1 (stereo not drawn) [1.34] |  | 10,7% | 100% | 
CCCCCCCCN(CC(Cn1ccnc1)OCc1ccc(Cl)cc1)c1ccc(Cl)cc1 (stereo not drawn) [1.35] | > 125 µg/mL | 45% | 100% | 
COC(CN(Cc1ccc(Cl)cc1Cl)c1ccc(Cl)cc1)Cn1ccnc1 (stereo not drawn) [1.37] |  | 16,7% |  | 
CCCCCCCCOC(CN(CC)c1ccc(Cl)cc1)Cn1ccnc1 (stereo not drawn) [1.40] | 125 µg/mL (≈ 319 µM) | 75,0% | 100% | 
CCN(CC(O)Cn1ccnc1)c1ccc(Cl)c(Cl)c1 (stereo not drawn) [1.41] |  | 33,3% | 100% | 
Clc1ccc(COC(CN2CCCc3ccccc32)Cn2ccnc2)c(Cl)c1 (stereo not drawn) [1.42] |  |  | 100% | 
Clc1ccc(COC(CN2CCCc3ccccc32)Cn2ccnc2)cc1 (stereo not drawn) [1.43] |  | 50% | 100% | 
